Laboratory results: ChEMBL document CHEMBL5674850, “ASAP - Solubility” (2024)
Values after ≈ are worked out from the molar mass of the structure shown.

Experiment: Kinetic solubility of compound by measuring concentration at pH 7.4 in saturated PBS buffer by UV LCMS/MS using calibration curves. The assay has been performed by Enamine biological services, Bienta Ltd.The protocol is publicly available: dx.doi.org/10.17504/protocols.io.j8nlk8y41l5r/v1
Type: physicochemical
Details: PBS buffer

`COCCNC(=O)[C@H](Nc1ccc2c(c1)CNC2)c1cc(Cl)cc(C2CC2)c1` and `N#CCCNC(=O)[C@H](Nc1ccc2c(c1)CNC2)c1cc(Cl)cc(C2CC2)c1` are within 1.5-fold of each other in solubility kinetic: 320 µM (≈ 128 µg/mL) for the first, 374 µM (≈ 148 µg/mL) for the second.

`CC(C)NC(=O)[C@H](Nc1ccc2c(c1)CNC2)c1cc(Cl)cc2[nH]ncc12` and `N#C[C@H](Nc1ccc2c(c1)CNC2)c1cc(Cl)cc2[nH]ncc12` are within 1.5-fold of each other in solubility kinetic: 311 µM (≈ 119 µg/mL) for the first, 297 µM (≈ 96.2 µg/mL) for the second.

First: O=C(Nc1ccc2c(c1)CNC2)c1cc(Cl)cc2c1CCC2
Second: O=C(Nc1ccc2c(c1)CNC2)c1cc(Cl)cc2cn[nH]c12
The solubility kinetic of the first is 1.8-fold higher: 335 µM (≈ 105 µg/mL) for the first, 184 µM (≈ 57.5 µg/mL) for the second.

`CNC(=O)[C@H](Nc1ccc2c(c1)CNC2)c1cc(Cl)cc(C2CC2)c1` and `O=C(NCCCF)[C@H](Nc1ccc2c(c1)CNC2)c1cc(Cl)cc(C2CC2)c1` are within 1.5-fold of each other in solubility kinetic: 358 µM (≈ 127 µg/mL) for the first, 394 µM (≈ 158 µg/mL) for the second.

Going from `O=C1Cc2c(cccc2C(=O)Nc2ccc3c(c2)CNC3)N1` to `O=C(Nc1ccc2c(c1)CNC2)c1cccc2[nH]c(C(F)(F)F)cc12`, the solubility kinetic rises from 152 µM (≈ 44.6 µg/mL) to 372 µM (≈ 128 µg/mL) (2.4-fold).

First: O=C(Nc1ccc2c(c1)CNC2)c1cc(Br)cc2[nH]c(-c3ccccc3)nc12
Second: N#Cc1cccc(-c2nc3c(C(=O)Nc4ccc5c(c4)CNC5)cc(F)cc3[nH]2)c1
The solubility kinetic of the first is lower: ≤ 2 µM for the first, 3 µM (≈ 1.19 µg/mL) for the second.

Going from `O=C(Nc1cc(Cl)cc(C(=O)Nc2ccc3c(c2)CNC3)c1)OCc1ccccc1` to `O=C(Nc1cc(Cl)cc(C(=O)Nc2cccc(C3CCNCC3)c2)c1)OCc1ccccc1`, the solubility kinetic rises from 35 µM (≈ 14.8 µg/mL) to 126 µM (≈ 58.5 µg/mL) (3.6-fold).

`Cn1ncc2c(C(=O)Nc3ccc4c(c3)CNC4)cc(Br)cc21` and `Cn1cc2c(C(=O)Nc3ccc4c(c3)CNC4)cc(F)cc2n1` are within 1.5-fold of each other in solubility kinetic: 392 µM (≈ 146 µg/mL) for the first, 309 µM (≈ 95.9 µg/mL) for the second.

Going from `O=C(Nc1ccc2c(c1)CNC2)c1cc(Cl)cc2ccncc12` to `CO[C@H]1C[C@H](n2ncc3c(C(=O)Nc4ccc5c(c4)CNC5)cc(Cl)cc32)C1`, the solubility kinetic rises from 181 µM (≈ 58.6 µg/mL) to 340 µM (≈ 135 µg/mL) (1.9-fold).

Compared with `O=C(/C=C/c1ccccc1)C(=O)N1CCN(CCc2ccccc2)CC1`, `NCc1cccc(NC(=O)[C@@H](NC(=O)OCc2ccccc2)c2ccc(OCc3ccccc3)cc2)c1` is 10-fold lower in solubility kinetic: 239 µM (≈ 83.3 µg/mL) for the first, 23 µM (≈ 11.4 µg/mL) for the second.

Compared with `CCCC[C@@H](NC(=O)OC(C)(C)C)C(=O)N[C@@H](C(=O)NCc1ccc(CN)cc1)c1ccc(OCc2ccccc2)cc1`, `NCc1cccc(CNC(=O)[C@@H](NC(=O)OCc2ccccc2)c2ccc(OCc3ccccc3)cc2)c1` is 1.8-fold lower in solubility kinetic: 143 µM (≈ 84.2 µg/mL) for the first, 78 µM (≈ 39.7 µg/mL) for the second.

`CC(C)NC(=O)[C@H](Nc1ccc2c(c1)CNC2)c1cc(Cl)cc2[nH]c(-c3ccccc3)nc12` and `CNC(=O)[C@H](Nc1ccc2c(c1)CNC2)c1cc(Cl)cc2[nH]c(-c3ccccc3)nc12` are within 1.5-fold of each other in solubility kinetic: 154 µM (≈ 70.8 µg/mL) for the first, 178 µM (≈ 76.9 µg/mL) for the second.

`CN(c1ccc2c(c1)CNC2)[C@H](C(=O)NCC(F)F)c1cc(Cl)cc(C2CC2)c1` and `COCc1cc(Cl)cc([C@H](Nc2ccc3c(c2)CNC3)C(=O)NCC(F)F)c1` are within 1.5-fold of each other in solubility kinetic: 172 µM (≈ 72.2 µg/mL) for the first, 192 µM (≈ 78.7 µg/mL) for the second.

`NCc1cccc([C@@H]2C[C@H]2c2cc(Cl)cc(NC(=O)OCc3ccccc3)c2)c1` and `NCc1cc(C(=O)O)cc([C@@H]2C[C@H]2c2cc(Cl)cc(NC(=O)OCc3ccccc3)c2)c1` are within 1.5-fold of each other in solubility kinetic: 50 µM (≈ 20.3 µg/mL) for the first, 52 µM (≈ 23.4 µg/mL) for the second.

Compared with `O=C(Nc1ccc2c(c1)CNC2)c1cc(F)cc(-c2cn[nH]c2)c1`, `O=C(Nc1cc2c(c(-c3c[nH]c(=O)c(F)c3)c1)CNC2)c1cc(F)cc2[nH]ncc12` is 2.8-fold lower in solubility kinetic: 185 µM (≈ 59.6 µg/mL) for the first, 66 µM (≈ 26.9 µg/mL) for the second.

Going from `O=C(NCC(F)F)[C@H](Nc1ccc2c(c1)CNC2)c1cc(Br)cc2nc[nH]c12` to `CNC(=O)[C@H](Nc1cccc(-c2nn[nH]n2)c1)c1cc(Cl)cc2[nH]ncc12`, the solubility kinetic falls from ≥ 400 µM to 347 µM (≈ 133 µg/mL).

`N#C[C@H](Nc1cccc(-c2nn[nH]n2)c1)c1cc(Cl)cc(NC(=O)OCc2ccccc2)c1` and `O=C(O)COc1cccc(NC(=O)c2cc(Cl)cc(NC(=O)OCc3ccccc3)c2)c1` are within 1.5-fold of each other in solubility kinetic: 344 µM (≈ 158 µg/mL) for the first, 360 µM (≈ 164 µg/mL) for the second.

Going from `O=C(N[C@H]1[C@H]2CCCCC[C@H]2[C@H]1C(=O)Nc1cccc(C2CCNCC2)c1)OCc1ccccc1` to `NCCc1ccc(NC(=O)c2cc(Cl)cc(NC(=O)OCc3ccccc3)c2)cc1`, the solubility kinetic rises from 49 µM (≈ 23.3 µg/mL) to 88 µM (≈ 37.3 µg/mL) (1.8-fold).

`NCc1cccc(NC(=O)C[C@@H](NC(=O)OCc2ccccc2)c2ccc(OCc3ccccc3)cc2)c1` and `NCc1cccc(NC(=O)C[C@H](NC(=O)OCc2ccccc2)c2ccc(OCc3ccccc3)c(Br)c2)c1` are within 1.5-fold of each other in solubility kinetic: 17 µM (≈ 8.66 µg/mL) for the first, 21 µM (≈ 12.4 µg/mL) for the second.

`NCc1cccc(NC(=O)c2cc(Cl)cc(CN)c2)c1` and `NCc1cccc(NC(=O)c2cccn3cc(CN4CCCC4)nc23)c1` are within 1.5-fold of each other in solubility kinetic: 375 µM (≈ 109 µg/mL) for the first, 332 µM (≈ 116 µg/mL) for the second.

First: Cc1c(C(=O)Nc2cc(-c3cccnc3)ccn2)cc(C2CC2)n1C
Second: CCOc1cccc(-c2ccc(S(=O)(=O)Nc3ccc(Cl)cc3C(=O)O)cc2)c1
The solubility kinetic of the first is 2.2-fold lower: 176 µM (≈ 58.5 µg/mL) for the first, 392 µM (≈ 169 µg/mL) for the second.

`O=C(O)c1cc(Cl)ccc1NS(=O)(=O)c1ccc(-c2ccccc2Cl)cc1` and `O=C(Nc1cc(Cl)cc(-c2ccc3[nH]c(C(=O)O)cc3c2)c1)OCc1ccccc1` are within 1.5-fold of each other in solubility kinetic: 397 µM (≈ 168 µg/mL) for the first, 356 µM (≈ 150 µg/mL) for the second.

First: COc1cc(Cc2c(-c3ccc(F)cc3)noc2C)nc(N2CCNCC2)n1
Second: O=C(O)Cn1ncc2cc(-c3cc(Cl)cc(NC(=O)OCc4ccccc4)c3)ccc21
The solubility kinetic of the first is 2.5-fold higher: 325 µM (≈ 125 µg/mL) for the first, 131 µM (≈ 57.1 µg/mL) for the second.

Same assay, conditions: buffer

In order of falling “Solubility (mean)” value:
1. O=C(Nc1ccc2c(c1)CNC2)c1cc(F)cc(-c2cn[nH]c2)c1  184 µM (≈ 59.3 µg/mL)
2. CC(C)NC(=O)[C@H](Nc1ccc2c(c1)CNC2)c1cc(Cl)cc2[nH]c(-c3ccccc3)nc12  134 µM (≈ 61.6 µg/mL)
